The supplement of paper PMC10307832

Columns and labels:
Experiment in all cases: relative viability (nuclei count vs DMSO), 5 days (fraction); higher = more cells survive
Ponatinib + Trametinib = compound: Cc1ccc(C(=O)Nc2ccc(CN3CCN(C)CC3)c(C(F)(F)F)c2)cc1C#Cc1cnc2cccnn12 [Ponatinib] + CC(=O)Nc1cccc(-n2c(=O)n(C3CC3)c(=O)c3c(Nc4ccc(I)cc4F)n(C)c(=O)c(C)c32)c1 [Trametinib] (partner 0.02 µM)
Outline: (§1)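 For relative viability, nuclei counts in treated wells were divided by those in vehicle wells. Lung cancer cell lines had been pin-tool dosed in 1536-well plates the day after seeding and cultured for 5 days, then fixed and stained in one step (final 0.05% Triton X-100, 1% formaldehyde, 1 ug/ml Hoechst) and imaged at 4×. Doses were one drug alone or a fixed anchor-drug dose plus five library-drug doses (not always all listed) in √10 steps, and values are duplicate-plate medians.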

Pazopanib = compound: Cc1ccc(Nc2nccc(N(C)c3ccc4c(C)n(C)nc4c3)n2)cc1S(N)(=O)=O [Pazopanib]
Outline: (§2)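 After an overnight hold at 37 °C, lung cancer cell lines in 1536-well plates were pinned with five library-drug doses (not always all listed), each √10 from the next, on vehicle-anchored plates. The cells stayed 5 days without fresh medium, then a one-step fix, permeabilisation and Hoechst stain preceded 4× imaging and MetaXpress nuclear counts. A plate passed only with control CV under 25% and at least one doubling. Viability is the median, over plates, of treated-well nuclei relative to vehicle-well nuclei.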

Ponatinib = compound: Cc1ccc(C(=O)Nc2ccc(CN3CCN(C)CC3)c(C(F)(F)F)c2)cc1C#Cc1cnc2cccnn12 [Ponatinib]
Outline: as §2

Pazopanib + Navitoclax = compound: Cc1ccc(Nc2nccc(N(C)c3ccc4c(C)n(C)nc4c3)n2)cc1S(N)(=O)=O [Pazopanib] + CC1(C)CCC(c2ccc(Cl)cc2)=C(CN2CCN(c3ccc(C(=O)NS(=O)(=O)c4ccc(N[C@H](CCN5CCOCC5)CSc5ccccc5)c(S(=O)(=O)C(F)(F)F)c4)cc3)CC2)C1 [Navitoclax] (partner 0.5 µM)
Outline: as §1

Cell Line | relative viability (Ponatinib + Trametinib; first compound 0.002 µM) | relative viability (Ponatinib + Trametinib; first compound 0.006325 µM) | relative viability (Ponatinib + Trametinib; first compound 0.06325 µM) | relative viability (Ponatinib + Trametinib; first compound 0.2 µM) | relative viability (Pazopanib; 0.01 µM) | relative viability (Pazopanib; 0.03162 µM) | relative viability (Pazopanib; 0.1 µM) | relative viability (Pazopanib; 0.3162 µM) | relative viability (Pazopanib; 1 µM) | relative viability (Ponatinib; 0.002 µM) | relative viability (Ponatinib; 0.006325 µM) | relative viability (Ponatinib; 0.06325 µM) | relative viability (Ponatinib; 0.2 µM) | relative viability (Pazopanib + Navitoclax; first compound 0.01 µM) | relative viability (Pazopanib + Navitoclax; first compound 0.03162 µM) | relative viability (Pazopanib + Navitoclax; first compound 0.1 µM) | relative viability (Pazopanib + Navitoclax; first compound 0.3162 µM) | relative viability (Pazopanib + Navitoclax; first compound 1 µM)
NCI-H1648 | 0.478 | 0.361 | 0.432 | 0.346 | 0.582 | 0.869 | 0.842 | 0.903 | 0.837 | 0.862 | 0.836 | 0.671 | 0.799 | – | – | – | – | –
NCI-H1395 | 0.905 | 1.01 | 0.976 | 0.78 | 0.848 | 1.03 | 0.825 | 1.1 | 1.2 | 0.675 | 0.934 | 0.91 | 0.708 | 1.15 | 1.25 | 1.24 | 1.33 | 1.28
NCI-H2347 | 0.241 | 0.272 | 0.332 | 0.264 | 0.932 | 1 | 0.98 | 1.05 | 1.04 | 0.977 | 1 | 1.19 | 0.977 | 0.722 | 0.805 | 0.836 | 0.842 | 0.858
HCC-366 | 0.32 | 0.417 | 0.428 | 0.273 | 0.922 | 0.989 | 1.03 | 1 | 1.1 | 1.03 | 1.04 | 1.05 | 0.989 | 1.02 | 1.11 | 1.14 | 0.984 | 1.19
201T | 0.705 | 0.733 | 0.762 | 0.693 | 0.937 | 0.919 | 0.979 | 1.06 | 0.932 | 0.928 | 0.986 | 1.07 | 0.963 | 1.21 | 1.22 | 1.26 | 1.18 | 1.17
HCC-827 | 0.526 | 0.558 | 0.558 | 0.459 | 1.11 | 1.06 | 1.04 | 1.07 | 1.04 | 0.983 | 1.03 | 1.07 | 1.03 | 1.06 | 1.02 | 1.11 | 1.07 | 0.98
NCI-H650 | 0.929 | 0.962 | 0.949 | 0.83 | 0.801 | 0.982 | 0.916 | 0.948 | 0.946 | 0.791 | 0.848 | 0.858 | 0.896 | – | – | – | – | –
NCI-H2023 | 0.555 | 0.625 | 0.64 | 0.523 | 0.856 | 1 | 0.989 | 0.974 | 1.22 | 0.821 | 0.95 | 1.1 | 0.846 | 0.972 | 1 | 0.98 | 1.01 | 1.01
NCI-H596 | 0.783 | 0.812 | 0.825 | 0.642 | 0.815 | 1.05 | 0.959 | 0.904 | 1.05 | 0.906 | 0.924 | 0.875 | 0.785 | 0.843 | 0.997 | 0.978 | 0.924 | 0.837
SK-LU-1 | 0.469 | 0.554 | 0.393 | 0.347 | 0.939 | 1.09 | 1.08 | 1.05 | 1.08 | 0.943 | 1 | 1.07 | 0.928 | 0.828 | 0.898 | 0.994 | 0.964 | 0.749
A-427 | 0.79 | 0.732 | 0.719 | 0.531 | 0.863 | 1.12 | 0.885 | 1 | 1.14 | 0.928 | 1.05 | 0.958 | 0.81 | 1.03 | 1.07 | 0.977 | 0.941 | 1.04
NCI-H460 | 0.192 | 0.128 | 0.268 | 0.1 | 0.966 | 1 | 1.04 | 1.01 | 1.05 | 0.943 | 0.958 | 0.969 | 0.985 | 0.849 | 1.19 | 1.34 | 1.16 | 1.15
NCI-H1703 | – | – | – | – | 0.744 | 0.735 | 0.562 | 0.353 | 0.331 | 0.821 | 0.83 | 0.466 | 0.333 | 0.865 | 0.925 | 0.344 | 0.256 | 0.287
NCI-H1792 | 0.312 | 0.546 | 0.54 | 0.403 | – | 0.911 | 0.832 | 1.12 | 0.956 | 0.887 | 0.836 | 1.12 | 0.838 | – | 0.62 | 0.58 | 0.627 | 0.569
Calu-6 | – | – | – | – | 0.99 | 1.07 | 1.04 | 1.01 | 0.974 | 0.987 | 0.967 | 1.02 | 0.905 | 0.87 | 0.863 | 0.848 | 0.768 | 0.842
SW 1573 | 0.6 | 0.595 | 0.591 | 0.577 | 0.948 | 1.02 | 1.07 | 1.2 | 1.13 | 0.961 | 0.955 | 1.06 | 0.897 | 1.16 | 1.06 | 1.02 | 1.2 | 1.28
RERF-LC-KJ | 0.826 | 0.803 | 1.03 | 0.852 | 1.11 | 1.03 | 0.984 | 0.919 | 0.969 | 0.926 | 1.01 | 1.05 | 0.965 | 0.906 | 1.01 | 1.06 | 0.879 | 1.04

Cell Line | relative viability (Ponatinib + Trametinib; first compound 0.002 µM) | relative viability (Ponatinib + Trametinib; first compound 0.006325 µM) | relative viability (Ponatinib + Trametinib; first compound 0.06325 µM) | relative viability (Ponatinib + Trametinib; first compound 0.2 µM) | relative viability (Pazopanib; 0.01 µM) | relative viability (Pazopanib; 0.03162 µM) | relative viability (Pazopanib; 0.1 µM) | relative viability (Pazopanib; 0.3162 µM) | relative viability (Pazopanib; 1 µM) | relative viability (Ponatinib; 0.002 µM) | relative viability (Ponatinib; 0.006325 µM) | relative viability (Ponatinib; 0.06325 µM) | relative viability (Ponatinib; 0.2 µM) | relative viability (Pazopanib + Navitoclax; first compound 0.01 µM) | relative viability (Pazopanib + Navitoclax; first compound 0.03162 µM) | relative viability (Pazopanib + Navitoclax; first compound 0.1 µM) | relative viability (Pazopanib + Navitoclax; first compound 0.3162 µM) | relative viability (Pazopanib + Navitoclax; first compound 1 µM)
EMC-BAC-2 | 0.875 | 0.897 | 0.91 | 0.718 | – | 0.977 | 0.93 | 1.03 | 1.04 | 0.821 | 0.973 | 1.04 | 0.822 | 1.04 | 1.21 | 1.15 | 1.15 | 1.15
LK-2 | 0.787 | 0.666 | 0.746 | 0.587 | 0.891 | 0.965 | 0.943 | 0.928 | 0.858 | 0.872 | 1 | 0.816 | 0.73 | 0.67 | 0.925 | 0.863 | 0.788 | 0.821
NCI-H2126 | 0.564 | 0.576 | 0.691 | 0.578 | 0.91 | 0.903 | 1.02 | 0.991 | 0.996 | 0.959 | 1.04 | 1.14 | 1.04 | 0.798 | 0.779 | 0.848 | 0.817 | 0.881
NCI-H322M | 0.516 | 0.555 | 0.553 | 0.531 | 0.906 | 0.996 | 0.92 | 0.967 | 1.03 | 0.96 | 0.983 | 0.953 | 0.853 | 1.03 | 1.19 | 1.27 | 1.36 | 1.24
NCI-H1299 | – | – | – | – | 1.02 | 1.03 | 1.03 | 0.993 | 0.95 | 0.997 | 1.02 | 1.02 | 0.931 | 1.04 | 1.03 | 1.03 | 1.1 | 1.02
LCLC-103H | 0.678 | 0.718 | 0.673 | 0.579 | 0.762 | 1.03 | 0.984 | 0.948 | 1.04 | 0.925 | 1 | 1.05 | 0.957 | – | – | – | – | –
ABC-1 | – | – | – | – | 0.798 | 0.89 | – | 1.08 | 0.974 | 0.865 | 0.852 | 0.96 | 0.751 | – | – | – | – | –
NCI-H661 | 0.544 | 0.556 | 0.524 | 0.453 | 0.939 | 0.958 | 1.03 | 1 | 0.986 | 0.98 | 0.942 | 0.985 | 0.99 | – | – | – | – | –
SW 900 | 1 | 0.967 | 0.762 | 0.873 | 0.796 | 0.902 | 0.762 | 1.12 | 1.2 | 0.817 | 0.783 | 0.889 | 0.794 | – | – | – | – | –
NCI-H1563 | – | – | – | – | 0.85 | 0.997 | 1.02 | 0.996 | 1.07 | 0.935 | 0.959 | 0.99 | 0.815 | – | – | – | – | –
A549 | – | – | – | – | 0.935 | 0.99 | 1.04 | 1.01 | 1.17 | 0.809 | 0.975 | 1.02 | 0.917 | 1.16 | 1.18 | 1.21 | 1.21 | 1.26
NCI-H2342 | 0.741 | 0.802 | 0.936 | 0.83 | 0.687 | 0.945 | 0.957 | 0.883 | 0.852 | 0.958 | 0.946 | 1.01 | 0.999 | – | – | – | – | –
NCI-H358 | 0.162 | 0.147 | 0.12 | 0.103 | 1.04 | 0.927 | 0.933 | 0.991 | 1.15 | 0.904 | 1.04 | 1.01 | 0.9 | – | – | – | – | –
NCI-H1623 | – | – | – | – | 0.964 | 0.909 | 0.885 | 1.06 | 0.929 | 0.991 | 1.05 | 1.01 | 0.969 | – | – | – | – | –
NCI-H522 | 0.739 | 0.876 | 0.594 | 0.629 | 0.723 | 0.978 | 0.864 | 0.983 | 1.12 | 0.816 | 1 | 0.818 | 0.847 | – | – | – | – | –
IA-LM | – | – | – | – | 0.935 | 0.995 | 1.03 | 1.05 | 0.918 | 0.872 | 0.903 | 0.953 | 0.802 | 0.815 | 0.782 | 0.778 | 0.792 | 0.625
EBC-1 | – | – | – | – | 1.01 | 1.05 | 0.978 | 0.956 | 1.09 | 0.926 | 1.05 | 1.16 | 0.924 | 0.364 | 0.436 | 0.454 | 0.442 | 0.427
